Measurements from PMC4425367 (Journal of medicinal chemistry, 2015).
“Also recorded” adds a separate entry of the source.

Key:
hCB2 receptor = hCB2 receptor (Homo sapiens, UniProt P34972); assay: cAMP assay, forskolin-stimulated cAMP in HEK293 cells expressing hCB2; assay type: cell-based; conditions: for classification hCB2: cAMP functional test
rCB1 receptor = rCB1 receptor (Rattus norvegicus, UniProt P20272); assay: cAMP assay, forskolin-stimulated cAMP in HEK293 cells expressing rCB1; assay type: cell-based; conditions: cAMP functional test
CB1 receptor = CB1 receptor (Rattus norvegicus, UniProt P20272); assay type: binding; conditions: 10Ki concentration, incubation extended to 60 min, compared with 30 min
Sequence of CB1 receptor (P20272 whole entry): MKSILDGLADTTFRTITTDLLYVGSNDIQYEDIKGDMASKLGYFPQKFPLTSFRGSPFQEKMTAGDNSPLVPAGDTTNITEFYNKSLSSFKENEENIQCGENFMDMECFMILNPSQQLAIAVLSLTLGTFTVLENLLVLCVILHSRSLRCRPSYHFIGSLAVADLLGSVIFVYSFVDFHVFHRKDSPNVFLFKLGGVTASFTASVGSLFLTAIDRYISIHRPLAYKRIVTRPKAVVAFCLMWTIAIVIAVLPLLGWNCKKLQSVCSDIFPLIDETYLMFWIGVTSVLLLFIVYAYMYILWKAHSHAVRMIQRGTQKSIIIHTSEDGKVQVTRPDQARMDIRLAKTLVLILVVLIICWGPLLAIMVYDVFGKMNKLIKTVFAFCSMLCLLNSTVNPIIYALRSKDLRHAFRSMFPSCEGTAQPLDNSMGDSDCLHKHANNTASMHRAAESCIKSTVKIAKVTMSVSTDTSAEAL

Sequence of rCB1 receptor (P20272 whole entry): as above
Sequence of hCB2 receptor (P34972 whole entry): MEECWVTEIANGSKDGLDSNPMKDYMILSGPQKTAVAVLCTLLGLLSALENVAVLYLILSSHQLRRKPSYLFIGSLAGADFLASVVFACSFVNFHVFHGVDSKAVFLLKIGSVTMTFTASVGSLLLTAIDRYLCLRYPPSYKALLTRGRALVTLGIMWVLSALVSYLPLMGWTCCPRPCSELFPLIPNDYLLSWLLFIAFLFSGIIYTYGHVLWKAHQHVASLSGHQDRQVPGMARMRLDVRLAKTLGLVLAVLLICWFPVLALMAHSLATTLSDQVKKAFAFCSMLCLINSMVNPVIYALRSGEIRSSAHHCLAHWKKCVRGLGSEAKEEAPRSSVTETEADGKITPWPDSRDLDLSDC

Row | SMILES | classification hCB2 (hCB2 receptor) | classification rCB1 (rCB1 receptor) | response of forskolin-stimulated cAMP accumulation, hCB2 (hCB2 receptor; HEK293 cells expressing hCB2, up to a 3 μM concentration) | CB1 covalent binding, 60 min incubation (CB1 receptor)
1 | CCCCCCC(C)(C)c1ccc([C@@H]2C[C@H](O)CC[C@H]2CCCO)c(O)c1 [CP-55,940, reference compound] | full agonist; also recorded: potent agonist | – | – | –
2 | CC1(C)Oc2cc([C@]34CC5CC(C[C@@](CN=C=S)(C5)C3)C4)cc(O)c2[C@@H]2C[C@H](O)CC[C@H]21 [Compound 16, (6aR,9R,10aR)-3-[(1r,3R)-3-(Isothiocyanatomethyl)-adamantan-1-yl]-6,6-dimethyl-6a,7,8,9,10,10a-hexahydro-6H-benzo[c]chromene-1,9-diol] | inverse agonist | potent agonists; also recorded: agonist | – | –
3 | CC1(C)Oc2cc([C@]34CC5CC(C[C@@](CN=[N+]=[N-])(C5)C3)C4)cc(O)c2[C@@H]2C[C@H](O)CC[C@H]21 [Compound 17, (6aR,9R,10aR)-3-[(1r,3R)-3-(Azidomethyl)adamantan-1-yl]-6,6-dimethyl-6a,7,8,9,10,10a-hexahydro-6H-benzo[c]-chromene-1,9-diol] | neutral antagonists | agonist | no response | –
4 | CC1(C)Oc2cc([C@]34CC5CC(C[C@@](N=C=S)(C5)C3)C4)cc(O)c2[C@@H]2C[C@H](O)CC[C@H]21 [Compound 19, (6aR,9R,10aR)-3-[(1r,3R)-3-Isothiocyanatoadamantan-1-yl]-6,6-dimethyl-6a,7,8,9,10,10a-hexahydro-6H-benzo[c]-chromene-1,9-diol] | neutral antagonists | potent agonists; also recorded: agonist | – | no further increase
5 | CC1(C)Oc2cc([C@]34CC5CC(C[C@@](N=[N+]=[N-])(C5)C3)C4)cc(O)c2[C@@H]2C[C@H](O)CC[C@H]21 [Compound 20, (6aR,9R,10aR)-3-[(1r,3R)-3-Azidoadamantan-1-yl]-6,6-di-methyl-6a,7,8,9,10,10a-hexahydro-6H-benzo[c]chromene-1,9-diol] | neutral antagonists | potent agonists; also recorded: agonist | – | –
6 | CC1(C)Oc2cc([C@]34CC5CC(C[C@@](CC#N)(C5)C3)C4)cc(O)c2[C@@H]2C[C@H](O)CC[C@H]21 [Compound 23, 2-{(1R,3r)-3-[(6aR,9R,10aR)-1,9-Dihydroxy-6,6-dimethyl-6a,7,8,9,10,10a-hexahydro-6H-benzo[c]chromen-3-yl]-adamantan-1-yl}acetonitrile] | inverse agonist | potent agonists; also recorded: agonist | – | –
7 | CC1(C)Oc2cc([C@]34CC5CC(C[C@@](C#N)(C5)C3)C4)cc(O)c2[C@@H]2C[C@H](O)CC[C@H]21 [Compound 25, (1R,3r)-3-[(6aR,9R,10aR)-1,9-Dihydroxy-6,6-dimethyl-6a,7,8,9,10,10a-hexahydro-6H-benzo[c]chromen-3-yl]-adamantane-1-carbonitrile] | inverse agonist | agonist | – | –
8 | COC(=O)N[C@]12CC3CC(C1)C[C@](c1cc(O)c4c(c1)OC(C)(C)[C@@H]1CC[C@@H](O)C[C@@H]41)(C3)C2 [Compound 26, Methyl {(1R,3r)-3-[(6aR,9R,10aR)-1,9-Dihydroxy-6,6-dimethyl-6a,7,8,9,10,10a-hexahydro-6H-benzo[c]chromen-3-yl]-adamantan-1-yl}carbamate] | inverse agonist | agonist | – | –
9 | CC1(C)Oc2cc(C34CC5CC(CC(C5)C3)C4)cc(O)c2[C@@H]2C[C@H](O)CC[C@H]21 [Compound 27, reference compound] | – | agonist | – | –
